Reference: patent US11865099B2, “Product based on iron bis-glycinate chelate and alginic acid and/or water-soluble salts thereof, formulations thereof, and pharmaceutical uses thereof” (LABORATORI BALDACCI S.P.A., priority 2015, dated 2024)

Experiment: Iron dissolution test, rotating basket apparatus, sample in dialysis membrane, 0.01 N HCl
Format: physicochemical
Conditions: for percentage of dissolved iron: after 120 minutes; for dissolution rate: sample in 1.0 ml 0.01 N HCl (method A) in dialysis membrane, linear trend
[1] = 1.0 ml 0.01 N HCl, dialysis membrane

Protocol: The dissolution test was performed with rotating basket apparatus according to Eur. Pharmacopoeia 9th Edition choosing hydrochloric acid to simulate the gastric fluid.
A first series of assays were performed placing the product into a dialysis membrane with adequate volumes of hydrochloric acid (1.0 or 2.0 ml). In this case, the dissolution medium was 0.01 N (pH=2) hydrochloric acid, as the dialysis membrane is not compatible with pH values lower than 2.
Experimental method: the dialysis membrane (Spectrum Labs Spectra/Por 3; MWCO; 3500 kDa) was hydrated for one night (16 hours) in deionized water before the test. […] The bags were closed and placed into the basket of the dissolution apparatus.
Then, the basket was immersed in 100 ml of 0.01 N HCl and the dissolution test was carried out at a temperature of 37° C. with a rotation speed of 75 rpm/min, withdrawing, at appropriate times, samples of dissolution phase that were immediately replaced with fresh solvent in order to maintain constant sink condition.
Experimental method: after hydration of the dialysis membrane for one night in deionized water, three exactly weighted samples of Feralgina® having different weights (range 20-30 mg) were dissolved with 1.0 ml (method A) or with 2.0 ml (method B) of hydrochloric acid (0.01 N) and the resulting solutions were placed into the hydrated dialysis membrane. The bags were perfectly closed and placed into the basket of the dissolution apparatus. […] The basket was immersed in 100 ml of 0.01 N HCl at a temperature of 37° C., with a rotation speed of 75 rpm/min, collecting samples of dissolution medium at appropriate times immediately replaced with fresh solvent in order to keep the dissolution constant (sink condition).
The dissolution tests of TecnoFERPlus were performed with two different experimental methods that involved, in one case, the use of the dialysis membrane and experimental conditions similarly to those followed for iron sulfate and iron bisglycinate with different volumes of hydrochloric acid 0.01 N, and in the second one, the use of TecnoFERPlus (capsule) without the dialysis membrane.

Row | SMILES | amount of iron dissolved in the medium, of the total content (after 15 minutes, 1.0 ml 0.01 N HCl, dialysis membrane) | percentage of dissolved iron [1] | dissolution rate
1 | NCC(=O)[O][Fe][O]C(=O)CN [Iron bis-glycinate chelate] | about 20% | about 60% | 0.378 min⁻¹
2 | O=S(=O)([O-])[O-].[Fe+2] [iron sulphate] |  | about 61% | 0.439 min⁻¹
